ChEMBL document CHEMBL1145283, “3-hydroxymethyl-7-(N-substituted aminosulfonyl)-1,2,3,4-tetrahydroisoquinoline inhibitors of phenylethanolamine N-methyltransferase that display remarkable potency and selectivity” (J Med Chem, 2005)

Target: T1, Adrenergic receptor alpha-2 (Rattus norvegicus, UniProt P22086+P19328+P22909)
T1 sequence (P22086 whole entry): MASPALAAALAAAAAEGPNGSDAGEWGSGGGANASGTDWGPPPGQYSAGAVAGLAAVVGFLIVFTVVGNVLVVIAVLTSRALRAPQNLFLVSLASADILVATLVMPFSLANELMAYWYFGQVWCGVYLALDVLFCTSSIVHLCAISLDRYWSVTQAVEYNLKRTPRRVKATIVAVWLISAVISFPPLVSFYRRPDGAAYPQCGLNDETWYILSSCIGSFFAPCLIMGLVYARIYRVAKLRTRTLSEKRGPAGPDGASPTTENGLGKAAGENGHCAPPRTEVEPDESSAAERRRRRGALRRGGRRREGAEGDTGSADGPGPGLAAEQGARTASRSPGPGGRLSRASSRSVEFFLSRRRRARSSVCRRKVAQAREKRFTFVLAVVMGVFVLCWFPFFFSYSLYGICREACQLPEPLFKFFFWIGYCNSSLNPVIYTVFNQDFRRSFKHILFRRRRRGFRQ
T1 sequence (P19328 whole entry): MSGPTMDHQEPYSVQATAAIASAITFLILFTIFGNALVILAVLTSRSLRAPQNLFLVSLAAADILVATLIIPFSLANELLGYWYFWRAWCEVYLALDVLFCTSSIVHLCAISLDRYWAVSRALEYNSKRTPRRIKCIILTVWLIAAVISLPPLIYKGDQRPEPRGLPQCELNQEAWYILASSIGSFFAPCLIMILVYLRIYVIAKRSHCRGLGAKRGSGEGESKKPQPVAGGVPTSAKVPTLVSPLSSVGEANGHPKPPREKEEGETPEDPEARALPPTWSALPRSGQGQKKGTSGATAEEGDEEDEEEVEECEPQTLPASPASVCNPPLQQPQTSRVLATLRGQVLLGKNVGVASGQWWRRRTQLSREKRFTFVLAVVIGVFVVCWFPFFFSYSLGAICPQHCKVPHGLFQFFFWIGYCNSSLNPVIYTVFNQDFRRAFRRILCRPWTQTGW
T1 sequence (P22909 whole entry): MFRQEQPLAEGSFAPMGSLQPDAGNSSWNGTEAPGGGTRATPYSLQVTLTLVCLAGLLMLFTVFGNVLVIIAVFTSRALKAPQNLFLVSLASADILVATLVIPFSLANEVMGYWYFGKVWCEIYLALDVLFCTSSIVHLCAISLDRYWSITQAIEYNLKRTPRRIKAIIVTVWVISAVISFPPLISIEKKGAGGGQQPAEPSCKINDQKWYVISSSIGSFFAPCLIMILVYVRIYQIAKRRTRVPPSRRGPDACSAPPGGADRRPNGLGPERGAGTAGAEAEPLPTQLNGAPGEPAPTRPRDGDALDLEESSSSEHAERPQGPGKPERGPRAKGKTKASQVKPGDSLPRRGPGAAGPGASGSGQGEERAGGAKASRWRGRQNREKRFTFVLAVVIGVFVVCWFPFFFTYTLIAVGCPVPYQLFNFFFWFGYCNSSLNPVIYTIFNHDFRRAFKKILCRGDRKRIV
Test: In vitro inhibition of [3H]clonidine from alpha-2 adrenergic receptor of rat cortex

`CCNS(=O)(=O)c1ccc2c(c1)CNC(CO)C2` (stereo not given) and `CCCNS(=O)(=O)c1ccc2c(c1)CNC(CO)C2` (stereo not given) are within 1.5-fold of each other in Ki: 210 µM for the first, 230 µM for the second.

`O=S(=O)(c1ccc2c(c1)CNC(CO)C2)N1CCSCC1` (stereo not given) and `O=S(=O)(NCC(F)(F)F)c1ccc2c(c1)CNC(CO)C2` (stereo not given) are within 1.5-fold of each other in Ki: 320 µM for the first, 340 µM for the second.

In the case of `O=S(=O)(Nc1ccc(Cl)cc1)c1ccc2c(c1)CNC(CO)C2` (stereo not given), the Ki is reported as 53 µM.
